Measured values as given in article PMC7871173 (Journal of medicinal chemistry, 2019).
“Also recorded” adds a separate entry of the source.

Key:
CB1 receptor [1] = biological target: T1, CB1 receptor (Homo sapiens, UniProt P21554); assay type: binding; settings: 1 μM compound; for % enhancement of [3H]CP 55,940 binding: three independent experiments
CB1 receptor [2] = biological target: T1, CB1 receptor; assay: cell-based; settings: read-out: Emax PAM, maximum EC20 CP 55,940-induced β-arrestin recruitment relative to maximum achievable with CP 55,940
CB1 receptor [3] = biological target: T1, CB1 receptor; assay type: cell-based; settings: for CB1 PAM activity (in words): enhancement of CP 55,940-induced β-arrestin recruitment; for enhancement of CP 55,940-induced β-arrestin recruitment: at 300 nM
in vitro = settings: rat, rat liver microsomes
[4] = tested on: mouse chronic constrictive injury of the sciatic nerve (CCI) model of neuropathic pain; settings: 40 mg/kg; cited from earlier work
[5] = Mouse liver microsomal stability; assay type: in vitro ADME; settings: mouse liver microsomes
CB1 receptor [6] = biological target: T2, CB1 receptor (Mus musculus, UniProt P47746); settings: for activity in the tetrad or psychoactive effects: see Supporting Information
T2 sequence (P47746 whole entry): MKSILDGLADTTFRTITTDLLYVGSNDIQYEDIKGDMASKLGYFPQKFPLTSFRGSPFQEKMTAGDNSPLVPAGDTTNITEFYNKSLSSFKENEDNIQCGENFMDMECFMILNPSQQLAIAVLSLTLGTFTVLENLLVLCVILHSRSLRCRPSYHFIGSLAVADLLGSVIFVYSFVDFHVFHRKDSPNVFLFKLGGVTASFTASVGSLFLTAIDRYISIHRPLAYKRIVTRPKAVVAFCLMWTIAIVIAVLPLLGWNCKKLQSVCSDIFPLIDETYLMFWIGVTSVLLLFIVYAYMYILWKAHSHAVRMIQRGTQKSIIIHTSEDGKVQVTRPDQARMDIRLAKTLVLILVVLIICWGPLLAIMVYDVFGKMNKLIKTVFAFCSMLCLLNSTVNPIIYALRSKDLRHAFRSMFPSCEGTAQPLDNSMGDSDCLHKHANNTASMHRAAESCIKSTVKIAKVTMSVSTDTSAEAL

[7] = compared to nearest nitro analogue
CB1 receptor [8] = biological target: T1, CB1 receptor; assay type: cell-based; settings: compound alone; relative to maximum achievable with CP 55,940
CB1 receptor [9] = biological target: T2, CB1 receptor; assay: Augmentation of CP 55,940 antinociception in the tail withdrawal test; assay type: in vivo; settings: 40 mg/kg

T1 sequence (P21554 whole entry): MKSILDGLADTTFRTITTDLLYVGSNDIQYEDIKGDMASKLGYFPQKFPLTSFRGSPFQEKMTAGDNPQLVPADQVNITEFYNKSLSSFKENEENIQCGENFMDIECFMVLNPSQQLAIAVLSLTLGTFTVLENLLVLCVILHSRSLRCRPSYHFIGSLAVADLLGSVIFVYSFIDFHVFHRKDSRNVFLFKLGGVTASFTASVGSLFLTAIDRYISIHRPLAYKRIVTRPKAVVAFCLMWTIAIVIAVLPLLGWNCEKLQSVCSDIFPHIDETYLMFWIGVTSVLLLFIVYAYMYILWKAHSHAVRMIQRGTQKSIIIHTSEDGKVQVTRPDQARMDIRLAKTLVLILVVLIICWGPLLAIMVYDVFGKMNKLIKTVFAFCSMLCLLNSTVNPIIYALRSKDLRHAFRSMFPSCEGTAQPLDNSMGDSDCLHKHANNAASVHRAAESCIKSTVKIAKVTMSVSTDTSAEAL

Structure (SMILES): N#Cc1ccc2c([C@@H](CC(F)(F)F)c3cccs3)c(-c3ccccc3)[nH]c2c1 [(R)-(−)-1]
- enhancement in binding of [3H]CP 55,940 (in words) (CB1 receptor [1]): significant enhancement
- % enhancement of [3H]CP 55,940 binding (CB1 receptor [1]): 131.4 ± 4.3%
- Emax (CB1 receptor [2]): 125 ± 29%

Structure (SMILES): Cc1ccc2c(C(c3ccccc3)C(C#N)C#N)c(-c3ccccc3)[nH]c2c1 (stereo not shown) [Compound 32]
- CB1 PAM activity (in words) (CB1 receptor [3]): modest

Structure (SMILES): CC(=O)Nc1ccc2c(C(CC(F)(F)F)c3cccs3)c(-c3ccccc3)[nH]c2c1 (stereo not shown) [Compound 53, N-(2-Phenyl-3-(3,3,3-trifluoro-1-(thiophen-2-yl)propyl)-1H-indol-6-yl)acetamide]
- CB1 PAM activity (in words) (CB1 receptor [3]): none of 6-CO2H (51), 6-CH2OH (52), 6-NHAc (53), 6-NH2 (55), or 6-NHSO2Me (56) gave active compounds

Structure (SMILES): Cc1ccc2[nH]c(-c3ccccc3)c(C(C[N+](=O)[O-])c3cccs3)c2c1 (stereo not shown) [Compound 2]
- CB1 PAM activity (in words) (CB1 receptor [3]): poor potency

Structure (SMILES): CC(=O)c1ccc2c(C(CC(F)(F)F)c3cccs3)c(-c3ccccc3)[nH]c2c1 (stereo not shown) [Compound 54, 1-(2-Phenyl-3-(3,3,3-trifluoro-1-(thiophen-2-yl)propyl)-1H-indol-6-yl)ethan-1-one]
- CB1 PAM activity (in words) (CB1 receptor [3]): potent and efficacious

Structure (SMILES): Cc1ccc2c(C(CC#N)c3ccccc3)c(-c3ccccc3)[nH]c2c1 (stereo not shown) [Compound 30]
- CB1 PAM activity (in words) (CB1 receptor [3]): modest

Structure (SMILES): Cc1ccc2c(C(CC(F)(F)F)c3ccccc3)c(-c3ccccc3)[nH]c2c1 (stereo not shown) [Compound 39]
- enhancement of CP 55,940-induced β-arrestin recruitment (CB1 receptor [3]): 50–100%

Structure (SMILES): Nc1ccc2c(C(CC(F)(F)F)c3cccs3)c(-c3ccccc3)[nH]c2c1 (stereo not shown) [Compound 55, 2-Phenyl-3-(3,3,3-trifluoro-1-(thiophen-2-yl)propyl)-1H-indol-6-amine]
- CB1 PAM activity (in words) (CB1 receptor [3]): none of 6-CO2H (51), 6-CH2OH (52), 6-NHAc (53), 6-NH2 (55), or 6-NHSO2Me (56) gave active compounds

Structure (SMILES): N#Cc1ccc2[nH]c(-c3ccccc3)c(C(C[N+](=O)[O-])c3cccs3)c2c1 (stereo not shown) [Compound 3]
- CB1 PAM activity (in words) (CB1 receptor [3]): poor potency

Structure (SMILES): CS(=O)(=O)Nc1ccc2c(C(CC(F)(F)F)c3cccs3)c(-c3ccccc3)[nH]c2c1 (stereo not shown) [Compound 56, N-(2-Phenyl-3-(3,3,3-trifluoro-1-(thiophen-2-yl)propyl)-1H-indol-6-yl)methanesulfonamide]
- CB1 PAM activity (in words) (CB1 receptor [3]): none of 6-CO2H (51), 6-CH2OH (52), 6-NHAc (53), 6-NH2 (55), or 6-NHSO2Me (56) gave active compounds

Structure (SMILES): Cc1ccc2c(C(C[N+](=O)[O-])c3cccs3)c(-c3ccccc3)[nH]c2c1 (stereo not shown) [Compound 5, reference compound]
- CB1 PAM activity (in words) (CB1 receptor [3]): moderately potent and efficacious CB1 PAMs
- half-life (in vitro): ≤ 10 min
- enhancement in binding of [3H]CP 55,940 (in words) (CB1 receptor [1]): significant enhancement
- anti-allodynic effects [4]: produces anti-allodynic effects
- half-life [5]: ≤ 10 min
- activity in the tetrad or psychoactive effects (CB1 receptor [6]): neither ZCZ011 or (±)-1 showed any activity in the tetrad or psychoactive effects

Structure (SMILES): O=[N+]([O-])CC(c1cccs1)c1c(-c2ccccc2)[nH]c2ccc([N+](=O)[O-])cc12 (stereo not shown) [Compound 4]
- CB1 PAM activity (in words) (CB1 receptor [3]): poor potency

Structure (SMILES): N#CCC(c1ccccc1)c1c(-c2ccccc2)[nH]c2cc(Cl)ccc12 (stereo not shown) [Compound 31]
- CB1 PAM activity (in words) (CB1 receptor [3]): somewhat reduced potency and efficacy
- metabolic stability in rat liver microsomes (in words) [7]: similarly poor metabolic stability

Structure (SMILES): OCc1ccc2c(C(CC(F)(F)F)c3cccs3)c(-c3ccccc3)[nH]c2c1 (stereo not shown) [Compound 52, (2-Phenyl-3-(3,3,3-trifluoro-1-(thiophen-2-yl)propyl)-1H-indol-6-yl)methanol]
- CB1 PAM activity (in words) (CB1 receptor [3]): none of 6-CO2H (51), 6-CH2OH (52), 6-NHAc (53), 6-NH2 (55), or 6-NHSO2Me (56) gave active compounds

Structure (SMILES): O=[N+]([O-])CC(c1cccs1)c1c(-c2ccccc2)[nH]c2cc(Cl)ccc12 (stereo not shown) [Compound 6]
- CB1 PAM activity (in words) (CB1 receptor [3]): moderately potent and efficacious CB1 PAMs

Structure (SMILES): N#Cc1ccc2c(C(C[N+](=O)[O-])c3cccs3)c(-c3ccccc3)[nH]c2c1 (single isomer, unassigned; (-)) [(−)-8]
- CB1 PAM activity (in words) (CB1 receptor [3]): effectively pure PAMs
- enhancement in binding of [3H]CP 55,940 (in words) (CB1 receptor [1]): no enhancement

Structure (SMILES): Cc1ccc2c(C(C(=O)C(F)(F)F)c3ccccc3)c(-c3ccccc3)[nH]c2c1 (stereo not shown) [Compound 38]
- enhancement of CP 55,940-induced β-arrestin recruitment (CB1 receptor [3]): 50–100%

Structure (SMILES): O=C(O)c1ccc2c(C(CC(F)(F)F)c3cccs3)c(-c3ccccc3)[nH]c2c1 (stereo not shown) [Compound 51]
- CB1 PAM activity (in words) (CB1 receptor [3]): none of 6-CO2H (51), 6-CH2OH (52), 6-NHAc (53), 6-NH2 (55), or 6-NHSO2Me (56) gave active compounds; also recorded: inactive

Structure (SMILES): N#Cc1ccc2c(C(C[N+](=O)[O-])c3cccs3)c(-c3ccccc3)[nH]c2c1 (single isomer, unassigned; (+)) [(+)-8]
- Emax Ago (CB1 receptor [8]): 6%
- CB1 PAM activity (in words) (CB1 receptor [3]): effectively pure PAMs
- enhancement in binding of [3H]CP 55,940 (in words) (CB1 receptor [1]): no enhancement

Structure (SMILES): N#Cc1ccc2c(C(CC(F)(F)F)c3cccs3)c(-c3ccccc3)[nH]c2c1 (racemic) [(±)-1, 2-Phenyl-3-(3,3,3-trifluoro-1-(thiophen-2-yl)propyl)-1H-indole-6-carbonitrile]
- shift of dose–response relationship of CP 55,940 in producing antinociception (CB1 receptor [9]): significant leftward shifts
- Emax (CB1 receptor [2]): 100 ± 25%
- antinociception in the tail withdrawal test (CB1 receptor [6]; 40 mg/kg, administered alone): did not produce antinociception
- hypothermia (CB1 receptor [6]; 40 mg/kg, administered alone): did not produce hypothermia
- immobility in the catalepsy bar test (CB1 receptor [6]; 40 mg/kg, administered alone): did not produce hypothermia or cause immobility in the catalepsy bar test
- locomotor behavior (distance traveled, immobility time) (CB1 receptor [6]; 40 mg/kg, administered alone): did not affect either the distance traveled or immobility time
- pharmacological effects in the tetrad assay (CB1 receptor [6]; 40 mg/kg, administered alone): did not elicit pharmacological effects
- activity in the tetrad or psychoactive effects (CB1 receptor [6]): neither ZCZ011 or (±)-1 showed any activity in the tetrad or psychoactive effects

Structure (SMILES): O=[N+]([O-])CC(c1cccs1)c1c(-c2ccccc2)[nH]c2cc(C(F)(F)F)ccc12 (stereo not shown) [Compound 7]
- CB1 PAM activity (in words) (CB1 receptor [3]): moderately potent and efficacious CB1 PAMs

Structure (SMILES): N#Cc1ccc2c([C@H](CC(F)(F)F)c3cccs3)c(-c3ccccc3)[nH]c2c1 [(S)-(+)-1]
- enhancement in binding of [3H]CP 55,940 (in words) (CB1 receptor [1]): significant enhancement
- % enhancement of [3H]CP 55,940 binding (CB1 receptor [1]): 144.4 ± 3.5%
- Emax (CB1 receptor [2]): 79 ± 32%

Structure (SMILES): N#Cc1ccc2c(C(C[N+](=O)[O-])c3cccs3)c(-c3ccccc3)[nH]c2c1 (racemic) [(±)-8]
- CB1 PAM activity (in words) (CB1 receptor [3]): moderately potent and efficacious CB1 PAMs
